Laboratory results from ChEMBL document CHEMBL1799997, “Discovery of omecamtiv mecarbil the first, selective, small molecule activator of cardiac Myosin” (ACS Med Chem Lett, 2010).
≈ marks a conversion by molar mass, not a printed value.

System: not listed separately
Assay: Clearance in Sprague-Dawley rat
Type: ADME, organism-based
Settings: in vivo

| Compound | clearance [mL/min/kg] |
| --- | --- |
| COC(=O)N1CCN(Cc2cccc(NC(=O)Nc3ccc(C)nc3)c2F)CC1 [OMECAMTIV MECARBIL] | 22 |

System: not listed separately
Assay: Plasma protein binding in Sprague-Dawley rat
Type: ADME, cell-free
Settings: read-out: PPB (converted)

| Compound | fraction unbound |
| --- | --- |
| COC(=O)N1CCC(Oc2cc(F)cc(NC(=O)Nc3ccc(C)nc3)c2)CC1 | 0.065 |
| CN(C)S(=O)(=O)N1CCC[C@@H](Oc2cc(F)cc(NC(=O)Nc3cccnc3)c2)C1 | 0.079 |
| COC(=O)N1CCN(Cc2cc(F)cc(NC(=O)Nc3ccc(C)nc3)c2)CC1 | 0.103 |
| CC(=O)N1CCC[C@@H](Oc2cc(F)cc(NC(=O)Nc3cccnc3)c2)C1 | 0.175 |
| COC(=O)N1CCN(Cc2cccc(NC(=O)Nc3ccc(C)nc3)c2F)CC1 [OMECAMTIV MECARBIL] | 0.204 |
| COC(=O)N1CCC[C@@H](Oc2cc(F)cc(NC(=O)Nc3cccnc3)c2)C1 | 0.096 |
| CC(=O)N1CCC[C@H](Oc2cc(F)cc(NC(=O)Nc3cccnc3)c2)C1 | 0.175 |
| COC(=O)N1CCN(Cc2cccc(NC(=O)Nc3ccc(C)nc3)c2)CC1 | 0.128 |

Species: Rattus norvegicus
Assay: Activation of Sprague-Dawley rat myosin in cardiomyocytes assessed as compound concentration resulting in 40% increase in ATPase activity at calcium concentrations that produced 25-50% of maximum calcium dependent activation
Type: cell-based
Settings: not given

| Compound | Activity [µM] |
| --- | --- |
| COC(=O)N1CCC(Oc2cc(F)cc(NC(=O)Nc3ccc(C)nc3)c2)CC1 | 0.8 |
| CC(=O)N1CCC[C@@H](Oc2cc(F)cc(NC(=O)Nc3ccc(C)nc3)c2)C1 | 2.5 |
| CN(C)S(=O)(=O)N1CCC[C@@H](Oc2cc(F)cc(NC(=O)Nc3cccnc3)c2)C1 | 0.6 |
| COC(=O)N1CCN(Cc2cc(F)cc(NC(=O)Nc3ccc(C)nc3)c2)CC1 | 1.7 |
| CC(=O)N1CCC[C@@H](Oc2cc(F)cc(NC(=O)Nc3cccnc3)c2)C1 | 2.5 |
| COC(=O)N1CCN(Cc2cccc(NC(=O)Nc3ccc(C)nc3)c2F)CC1 [OMECAMTIV MECARBIL] | 0.58 |
| COC(=O)N1CCC[C@@H](Oc2cc(F)cc(NC(=O)Nc3cccnc3)c2)C1 | 3.6 |
| CC(=O)N1CCC[C@H](Oc2cc(F)cc(NC(=O)Nc3cccnc3)c2)C1 | 7.3 |
| COC(=O)N1CCN(Cc2cccc(NC(=O)Nc3ccc(C)nc3)c2)CC1 | 4.5 |

System: not listed separately
Assay: Ratio of extraction in human Liver microsomes
Type: ADME, Microsome
Settings: read-out: ERH

| Compound | hepatic extraction ratio |
| --- | --- |
| COC(=O)N1CCC(Oc2cc(F)cc(NC(=O)Nc3ccc(C)nc3)c2)CC1 | 0.3 |
| CC(=O)N1CCC[C@@H](Oc2cc(F)cc(NC(=O)Nc3ccc(C)nc3)c2)C1 | 0.6 |
| COC(=O)N1CCN(Cc2cc(F)cc(NC(=O)Nc3ccc(C)nc3)c2)CC1 | < 0.2 |
| CC(=O)N1CCC[C@@H](Oc2cc(F)cc(NC(=O)Nc3cccnc3)c2)C1 | 0.5 |
| COC(=O)N1CCN(Cc2cccc(NC(=O)Nc3ccc(C)nc3)c2F)CC1 [OMECAMTIV MECARBIL] | < 0.2 |
| COC(=O)N1CCC[C@@H](Oc2cc(F)cc(NC(=O)Nc3cccnc3)c2)C1 | 0.5 |
| COC(=O)N1CCN(Cc2cccc(NC(=O)Nc3ccc(C)nc3)c2)CC1 | < 0.2 |

System: not listed separately
Assay: Induction of contractility in Sprague-Dawley rat Cardiomyocytes assessed as change in fractional shortening at 0.8 uM
Type: functional, Cardiac muscle cell
Settings: not given

| Compound | Activity [%] |
| --- | --- |
| CN(C)S(=O)(=O)N1CCC[C@@H](Oc2cc(F)cc(NC(=O)Nc3cccnc3)c2)C1 | 126 |
| COC(=O)N1CCN(Cc2cc(F)cc(NC(=O)Nc3ccc(C)nc3)c2)CC1 | 138 |
| COC(=O)N1CCN(Cc2cccc(NC(=O)Nc3ccc(C)nc3)c2)CC1 | 126 |

System: Aorta
Assay: Inhibition of vasodilation in Sprague-Dawley rat aortic ring
Type: functional
Settings: not given

| Compound | R50 [µM] |
| --- | --- |
| COC(=O)N1CCC(Oc2cc(F)cc(NC(=O)Nc3ccc(C)nc3)c2)CC1 | 11 |
| CC(=O)N1CCC[C@@H](Oc2cc(F)cc(NC(=O)Nc3ccc(C)nc3)c2)C1 | 2.4 |
| CN(C)S(=O)(=O)N1CCC[C@@H](Oc2cc(F)cc(NC(=O)Nc3cccnc3)c2)C1 | 6.6 |
| COC(=O)N1CCN(Cc2cc(F)cc(NC(=O)Nc3ccc(C)nc3)c2)CC1 | >25 |
| CC(=O)N1CCC[C@@H](Oc2cc(F)cc(NC(=O)Nc3cccnc3)c2)C1 | 1.7 |
| COC(=O)N1CCN(Cc2cccc(NC(=O)Nc3ccc(C)nc3)c2F)CC1 [OMECAMTIV MECARBIL] | >25 |
| COC(=O)N1CCC[C@@H](Oc2cc(F)cc(NC(=O)Nc3cccnc3)c2)C1 | 8 |
| CC(=O)N1CCC[C@H](Oc2cc(F)cc(NC(=O)Nc3cccnc3)c2)C1 | >25 |
| COC(=O)N1CCN(Cc2cccc(NC(=O)Nc3ccc(C)nc3)c2)CC1 | 15 |

System: not listed separately
Assay: Bioavailability in Beagle dog heart failure model
Type: ADME, organism-based, Canis lupus familiaris
Settings: in vivo

| Compound | bioavailability [%] |
| --- | --- |
| COC(=O)N1CCN(Cc2cccc(NC(=O)Nc3ccc(C)nc3)c2F)CC1 [OMECAMTIV MECARBIL] | 80 |

System: not listed separately
Assay: Induction of contractility in Sprague-Dawley rat Cardiomyocytes assessed as change in fractional shortening at 2 uM
Type: functional, Cardiac muscle cell
Settings: not given

| Compound | Activity [%] |
| --- | --- |
| COC(=O)N1CCC(Oc2cc(F)cc(NC(=O)Nc3ccc(C)nc3)c2)CC1 | 123 |
| CC(=O)N1CCC[C@@H](Oc2cc(F)cc(NC(=O)Nc3ccc(C)nc3)c2)C1 | 140 |
| CC(=O)N1CCC[C@@H](Oc2cc(F)cc(NC(=O)Nc3cccnc3)c2)C1 | 129 |
| COC(=O)N1CCC[C@@H](Oc2cc(F)cc(NC(=O)Nc3cccnc3)c2)C1 | 123 |

System: not listed separately
Assay: Induction of contractility in Sprague-Dawley rat Cardiomyocytes assessed as change in fractional shortening at 10 uM
Type: functional, Cardiac muscle cell
Settings: not given

| Compound | Activity [%] |
| --- | --- |
| CC(=O)N1CCC[C@H](Oc2cc(F)cc(NC(=O)Nc3cccnc3)c2)C1 | 122 |

System: not listed separately
Assay: Induction of contractility in Sprague-Dawley rat Cardiomyocytes assessed as change in fractional shortening at 0.2 uM
Type: functional, Cardiac muscle cell
Settings: not given

| Compound | Activity [%] |
| --- | --- |
| COC(=O)N1CCN(Cc2cccc(NC(=O)Nc3ccc(C)nc3)c2F)CC1 [OMECAMTIV MECARBIL] | 123 |

Target: T1, Cytochrome P450 1A2 (Homo sapiens, UniProt P05177)
T1 sequence (P05177 whole entry): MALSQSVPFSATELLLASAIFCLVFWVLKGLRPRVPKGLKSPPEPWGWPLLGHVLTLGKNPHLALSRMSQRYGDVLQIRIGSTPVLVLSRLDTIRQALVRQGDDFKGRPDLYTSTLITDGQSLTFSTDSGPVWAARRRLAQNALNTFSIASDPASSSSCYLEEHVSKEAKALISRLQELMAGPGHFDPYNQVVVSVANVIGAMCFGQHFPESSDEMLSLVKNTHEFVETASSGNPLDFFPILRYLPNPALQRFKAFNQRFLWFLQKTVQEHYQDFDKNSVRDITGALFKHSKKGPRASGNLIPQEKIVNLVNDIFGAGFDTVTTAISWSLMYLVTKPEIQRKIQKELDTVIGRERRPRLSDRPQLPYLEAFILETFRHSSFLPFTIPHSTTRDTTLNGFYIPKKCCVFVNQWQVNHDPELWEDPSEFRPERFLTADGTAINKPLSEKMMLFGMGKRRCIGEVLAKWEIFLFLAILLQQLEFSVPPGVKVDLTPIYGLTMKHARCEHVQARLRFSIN
Assay: Inhibition of CYP1A2
Type: ADME
Settings: not given

| Compound | IC50 [µM] |
| --- | --- |
| COC(=O)N1CCC(Oc2cc(F)cc(NC(=O)Nc3ccc(C)nc3)c2)CC1 | > 10 |
| CC(=O)N1CCC[C@@H](Oc2cc(F)cc(NC(=O)Nc3ccc(C)nc3)c2)C1 | > 10 |
| COC(=O)N1CCN(Cc2cc(F)cc(NC(=O)Nc3ccc(C)nc3)c2)CC1 | > 10 |
| CC(=O)N1CCC[C@@H](Oc2cc(F)cc(NC(=O)Nc3cccnc3)c2)C1 | 0.08 |
| COC(=O)N1CCN(Cc2cccc(NC(=O)Nc3ccc(C)nc3)c2F)CC1 [OMECAMTIV MECARBIL] | > 10 |
| COC(=O)N1CCN(Cc2cccc(NC(=O)Nc3ccc(C)nc3)c2)CC1 | > 10 |

System: not listed separately
Assay: Bioavailability in Sprague-Dawley rat
Type: ADME, organism-based
Settings: in vivo

| Compound | bioavailability [%] |
| --- | --- |
| COC(=O)N1CCN(Cc2cccc(NC(=O)Nc3ccc(C)nc3)c2F)CC1 [OMECAMTIV MECARBIL] | 100 |

System: not listed separately
Assay: Volume of distribution in Sprague-Dawley rat
Type: ADME, organism-based
Settings: in vivo

| Compound | Vd [L/kg] |
| --- | --- |
| COC(=O)N1CCN(Cc2cccc(NC(=O)Nc3ccc(C)nc3)c2F)CC1 [OMECAMTIV MECARBIL] | 3.5 |

System: not listed separately
Assay: Solubility of the compound at pH 5 by shake flask method
Type: physicochemical
Settings: buffer

| Compound | solubility thermodynamic [µg/mL] |
| --- | --- |
| COC(=O)N1CCC(Oc2cc(F)cc(NC(=O)Nc3ccc(C)nc3)c2)CC1 | 17 (≈ 42.2 µM) |
| CC(=O)N1CCC[C@@H](Oc2cc(F)cc(NC(=O)Nc3ccc(C)nc3)c2)C1 | 130 (≈ 336 µM) |
| CN(C)S(=O)(=O)N1CCC[C@@H](Oc2cc(F)cc(NC(=O)Nc3cccnc3)c2)C1 | 40 (≈ 91.4 µM) |
| COC(=O)N1CCN(Cc2cc(F)cc(NC(=O)Nc3ccc(C)nc3)c2)CC1 | 4600 (≈ 11500 µM) |
| CC(=O)N1CCC[C@@H](Oc2cc(F)cc(NC(=O)Nc3cccnc3)c2)C1 | 390 (≈ 1050 µM) |
| COC(=O)N1CCN(Cc2cccc(NC(=O)Nc3ccc(C)nc3)c2F)CC1 [OMECAMTIV MECARBIL] | 2200 (≈ 5480 µM) |
| COC(=O)N1CCC[C@@H](Oc2cc(F)cc(NC(=O)Nc3cccnc3)c2)C1 | 18 (≈ 46.3 µM) |
| CC(=O)N1CCC[C@H](Oc2cc(F)cc(NC(=O)Nc3cccnc3)c2)C1 | 550 (≈ 1480 µM) |
| COC(=O)N1CCN(Cc2cccc(NC(=O)Nc3ccc(C)nc3)c2)CC1 | 4000 (≈ 10400 µM) |

System: not listed separately
Assay: Clearance in Beagle dog heart failure model
Type: ADME, organism-based, Canis lupus familiaris
Settings: in vivo

| Compound | clearance [mL/min/kg] |
| --- | --- |
| COC(=O)N1CCN(Cc2cccc(NC(=O)Nc3ccc(C)nc3)c2F)CC1 [OMECAMTIV MECARBIL] | 7.2 |

System: not listed separately
Assay: Volume of distribution in Beagle dog heart failure model
Type: ADME, organism-based, Canis lupus familiaris
Settings: in vivo

| Compound | Vd [L/kg] |
| --- | --- |
| COC(=O)N1CCN(Cc2cccc(NC(=O)Nc3ccc(C)nc3)c2F)CC1 [OMECAMTIV MECARBIL] | 3.6 |

Target: T2, CYP1A2 (Homo sapiens, UniProt P05177)
T2 sequence (P05177 whole entry): T1 sequence (P05177 whole entry)
Assay: Inhibition of CYP1A2 at 10 uM
Type: ADME
Settings: not given

| Compound | inhibition at 10 µM [%] |
| --- | --- |
| COC(=O)N1CCC[C@@H](Oc2cc(F)cc(NC(=O)Nc3cccnc3)c2)C1 | 97 |
| CC(=O)N1CCC[C@H](Oc2cc(F)cc(NC(=O)Nc3cccnc3)c2)C1 | 99 |
